# Data taken from US20230072421A1, “TARGETED RADIOPHARMACEUTICALS FOR THE DIAGNOSIS AND TREATMENT OF PROSTATE CANCER” (Bayer AS, priority 2019, published 2023).
# What was measured:
# [1] = test system: LNCaP human prostate cancer cells; experiment: LNCaP xenograft efficacy study (T/C tumor area); assay type: in vivo, SCID mice; settings: Example II; 750 kBq/kg weekly for 5 weeks; day 120
# Outline: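 SCID mice with testosterone pellet bearing s.c. flank LNCaP xenografts (5×10^6 cells in Matrigel) were treated i.v. with a defined radioactive dose once tumors reached 35-50 mm^2 (n=10/group). Tumor area (caliper, longest diameter × perpendicular) measured 2-3× weekly; T/C ratio calculated from tumor areas when vehicle group closed.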
# [2] = test system: LNCaP cells; experiment: Cell proliferation assay (CellTiter-Glo, 5-day exposure), LNCaP; assay type: cell-based, human
# Method: Inhibition of cell proliferation of Thorium-227 labeled PMSA SMOL ligands was tested different prostate cancer cell lines, namely 22Rv1, VCaP, C4-2 (all from ATCC, Manassas, Va., USA) and LNCaP (DMSZ, Braunschweig). Cells were seeded using the following conditions in 384 well plates (Corning) in 30 μl of growth media at 4000 cells/well for VCaP cells and 1000 cells/well for 22Rv1, C4-2 and LNCaP cells.
# Cells were cultivated an incubator at 37° C. and 5% C02 over night. On the following days cells were treated in triplicates with serial dilutions of PSMA-SMOLs labeled with Th-227 at a specific activity of 375 kBq/nmol (RCP>70% as assessed by iTLC analysis; compounds where RCP was between 50-70% in individual experiments are marked with an * in the table) using a D300e Digital Dispenser (Tecan). In sister plates cell viability at treatment start (d=0) was determined using CellTiter-Glo® assay (CTG, Promega, Madison, Wis., USA), by adding 30 μl per well CTG solution, incubation for 10 min and reading of Luminescence in a PheraStarFSX instrument (BMG Labtech). After a 5-day exposure in the presenced of test compounds, cell viability of treated or untreated control cells was determined again using CellTiter-Glo® assay (Promega, Madison, Wis., USA). […] The DRC software is a Biobook Spreadsheet that was developed by Bayer AG and Bayer Business Services on the IDBS E-Workbook Suite platform (IDBS: ID Business Solutions Ltd., Guildford, UK).
# [3] = biological target: T1, PSMA-expressing LNCaP cells (Homo sapiens, UniProt Q04609); experiment: Internalization assay (membrane bound and internalized Th-227); assay type: cell-based; settings: for Internalized in LNCaP fmol/10^6 cells 30 min / Membrane bound in LNCaP fmol/10^6 cells 30 min / Internalized in LNCaP fmol/10^6 cells 2 h / Membrane bound in LNCaP fmol/10^6 cells 2 h: 10 nM radiolabeled compound, Th-227 at 375 kBq/nmol, triplicates; for Internalized in LNCaP fmol/10^6 cells 30 min / Membrane bound in LNCaP fmol/10^6 cells 30 min: 30 min incubation; for Internalized in LNCaP fmol/10^6 cells 2 h / Membrane bound in LNCaP fmol/10^6 cells 2 h: 2 h incubation
# T1 construct: PSMA-expressing LNCaP cells; endogenous in cells; host or cells: LNCaP
# Method: For internalization assays 24 well plates (#3526, Corning) were coated with 200 μl Poly-L-Lysine (0.1 mg/ml, #3438-100-01, Fa. Cultrex) per well for 2 h at 37° C. […] Cells were incubated at 37° C. and 5% CO2 over night. On the following day 400 μl of the media were removed and a total of 200 μl growth medium added supplemented with PSMA-SMOLs labeled with Th-227 at 375 kBq/nmol in triplicates. Radiochemical purity of the labeling was analyzed by instant thin layer chromatography and found to be above 70% for all compounds used. The final concentration of radiolabeled SMOLs was in the test wells was 10 nM. Cells were incubated for 30 min or 2 h. After the incubation time supernatants were taken off and cells washed with PBS. Thereafter cells were washed twice with 0.2 ml 50 mM Glycine-HCl buffer (#55097, Sigma Aldrich) and once with PBS and the washing solutions combined in counting vials (#TK75-018, Fa. Corning) and subjected to gamma counting (1470 Wizard automatic gamma counter, Wallac). The resulting counts were attributed to membrane bound radioactivity. Cells were then lysed with 500 μl 0.3N NaOH (#181691.1211, Fa. PanReac AppliChem ITW Reagents) followed by another wash with 500 μl PBS. The NaOH lysate as well as the final wash were combined in vials and subjected to gamma counting as described above. Measured radioactivity was attributed to internalized fraction. Results were calculated as fmol of Th-227 per/10^cells in the membrane bound and internalized fractions from triplicate values.
# [4] = Biodistribution study in LNCaP tumor-bearing mice (Th227 counted in organs); assay type: in vivo, SCID mice; settings: 500 kBq/kg; for Th-227 in Blood / Th-227 in Femur bone / Th-227 in Kidneys / Th-227 in Liver / Th-227 in Spleen / Th-227 in Tumor / Th-227 in salivary glands: study b3004
# Outline: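 SCID mice bearing testosterone pellets and subcutaneous LNCaP flank tumors (~50 mm^2) received a single intravenous dose of the radioactive compound. At set time points, n=3 animals were sacrificed, and organs were removed, weighed and counted for Th227 on a Germanium detector.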
# [5] = test system: VCaP cells; experiment: Cell proliferation assay (CellTiter-Glo, 5-day exposure), VCaP; assay type: cell-based; settings: 4000 cells/well, Th-227 labelled at 375 kBq/nmol, mean of 1 to 6 experiments
# Outline: (§1)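 Growth inhibition by radiolabelled (Th-227) PSMA small-molecule ligands is measured as ATP luminescence after 5 days of treatment, referenced to a day-0 reading from sister plates. VCaP are seeded at 4000 cells/well, the remaining lines at 1000 cells/well.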
# [6] = test system: 22Rv1 cells; experiment: Cell proliferation assay (CellTiter-Glo, 5-day exposure), 22Rv1; assay type: cell-based; settings: 22Rv1, 1000 cells/well, Th-227 labelled at 375 kBq/nmol, mean of 1 to 6 experiments
# Outline: as §1
# [7] = test system: C4-2 cells; experiment: Cell proliferation assay (CellTiter-Glo, 5-day exposure), C4-2; assay type: cell-based; settings: C4-2, 1000 cells/well, Th-227 labelled at 375 kBq/nmol, mean of 1 to 6 experiments
# Outline: as §1
# [8] = comparison of % injected dose per gram tissue
# T1 sequence (Q04609 whole entry): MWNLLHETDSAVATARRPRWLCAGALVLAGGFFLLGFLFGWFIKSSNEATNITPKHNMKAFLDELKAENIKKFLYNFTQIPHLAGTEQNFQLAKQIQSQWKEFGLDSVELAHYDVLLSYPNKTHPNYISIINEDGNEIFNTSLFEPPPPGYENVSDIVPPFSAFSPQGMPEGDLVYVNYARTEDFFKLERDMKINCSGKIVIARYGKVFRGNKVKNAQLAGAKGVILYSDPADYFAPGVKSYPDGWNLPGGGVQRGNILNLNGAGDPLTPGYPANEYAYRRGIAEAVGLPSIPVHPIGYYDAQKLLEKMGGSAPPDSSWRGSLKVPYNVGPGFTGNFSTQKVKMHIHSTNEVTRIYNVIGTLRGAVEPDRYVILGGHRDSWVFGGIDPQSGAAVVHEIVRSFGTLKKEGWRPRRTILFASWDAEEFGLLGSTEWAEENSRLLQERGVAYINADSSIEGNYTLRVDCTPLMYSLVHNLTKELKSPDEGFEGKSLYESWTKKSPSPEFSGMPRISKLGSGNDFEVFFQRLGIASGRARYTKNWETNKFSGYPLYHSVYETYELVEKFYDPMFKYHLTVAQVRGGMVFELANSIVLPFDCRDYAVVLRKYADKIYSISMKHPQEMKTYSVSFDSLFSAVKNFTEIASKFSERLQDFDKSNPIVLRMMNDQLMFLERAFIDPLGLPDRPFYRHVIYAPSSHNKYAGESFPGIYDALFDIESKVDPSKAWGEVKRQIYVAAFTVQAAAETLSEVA
structure (smiles),measurement,setting,value
CC1=CC2=C3[O][227Th-5]45678([O]C9=C(C=C(C)N(CC(=O)O)C9=[O+]4)C(=O)NCCN(CCCN(CCNC(=O)C4=C([O]5)C(=[O+]6)N(CC(=O)O)C(C)=C4)CCNC(=O)C4=C([OH+]7)C(=[O+]8)N(CC(=O)NC[C@H]5CC[C@H](C(=O)N[C@@H](Cc6ccc7ccccc7c6)C(=O)NCCCC[C@H](NC(=O)N[C@@H](CCC(=O)O)C(=O)O)C(=O)O)CC5)C(C)=C4)CCNC2=O)[O+]=C3N1CC(=O)O [1-C monomer-227Th],Tumor response,[1],full response
same,antiproliferative activity on LnCap cells (in words),[2]; compared to 1-PEG-227Th and 46-E 227Th,superior antiproliferative activity
same,Internalized in LNCaP fmol/10^6 cells 30 min,[3],84 fmol/10^6 cells
same,Membrane bound in LNCaP fmol/10^6 cells 30 min,[3],105 fmol/10^6 cells
same,Internalized in LNCaP fmol/10^6 cells 2 h,[3],291 fmol/10^6 cells
same,Membrane bound in LNCaP fmol/10^6 cells 2 h,[3],260 fmol/10^6 cells
same,intracellular radioactivity on PSMA-expressing LNCaP cells (in words),"[3]; after 30 min and 2 h, compared to 1-B-227Th bearing a DOTA chelator",increased intracellular radioactivity
same,Accumulation in the tumor (in words),[4]; [8],much higher accumulation in the tumor
same,"Background in blood, liver and spleen (in words)",[4]; [8],lower background compared to 1-F-227Th
same,Th-227 in Blood,[4]; 1 h,0.63 % ID Th-227/g organ
same,Th-227 in Femur bone,[4]; 1 h,0.96 % ID Th-227/g organ
same,Th-227 in Kidneys,[4]; 1 h,119.59 % ID Th-227/g organ
same,Th-227 in Liver,[4]; 1 h,0.69 % ID Th-227/g organ
same,Th-227 in Spleen,[4]; 1 h,4.69 % ID Th-227/g organ
same,Th-227 in Tumor,[4]; 1 h,31.73 % ID Th-227/g organ
same,Th-227 in salivary glands,[4]; 1 h,9.62 % ID Th-227/g organ
same,Th-227 in Blood,[4]; 24 h,0.03 % ID Th-227/g organ
same,Th-227 in Femur bone,[4]; 24 h,1.08 % ID Th-227/g organ
same,Th-227 in Kidneys,[4]; 24 h,72.59 % ID Th-227/g organ
same,Th-227 in Liver,[4]; 24 h,0.35 % ID Th-227/g organ
same,Th-227 in Spleen,[4]; 24 h,1.79 % ID Th-227/g organ
same,Th-227 in Tumor,[4]; 24 h,16.36 % ID Th-227/g organ
same,Th-227 in salivary glands,[4]; 24 h,1.41 % ID Th-227/g organ
same,Th-227 in Blood,[4]; 72 h,0.01 % ID Th-227/g organ
same,Th-227 in Femur bone,[4]; 72 h,1.12 % ID Th-227/g organ
same,Th-227 in Kidneys,[4]; 72 h,24.80 % ID Th-227/g organ
same,Th-227 in Liver,[4]; 72 h,0.36 % ID Th-227/g organ
same,Th-227 in Spleen,[4]; 72 h,0.76 % ID Th-227/g organ
same,Th-227 in Tumor,[4]; 72 h,9.02 % ID Th-227/g organ
same,Th-227 in salivary glands,[4]; 72 h,1.13 % ID Th-227/g organ
same,Th-227 in Blood,[4]; 168 h,0.00 % ID Th-227/g organ
same,Th-227 in Femur bone,[4]; 168 h,1.28 % ID Th-227/g organ
same,Th-227 in Kidneys,[4]; 168 h,12.66. % ID Th-227/g organ
same,Th-227 in Liver,[4]; 168 h,0.33 % ID Th-227/g organ
same,Th-227 in Spleen,[4]; 168 h,0.78 % ID Th-227/g organ
same,Th-227 in Tumor,[4]; 168 h,6.20 % ID Th-227/g organ
same,Th-227 in salivary glands,[4]; 168 h,1.23 % ID Th-227/g organ
same,Th-227 in Blood,[4]; 336 h,0.00 % ID Th-227/g organ
same,Th-227 in Femur bone,[4]; 336 h,1.13 % ID Th-227/g organ
same,Th-227 in Kidneys,[4]; 336 h,3.41 % ID Th-227/g organ
same,Th-227 in Liver,[4]; 336 h,0.31 % ID Th-227/g organ
same,Th-227 in Spleen,[4]; 336 h,0.70 % ID Th-227/g organ
same,Th-227 in Tumor,[4]; 336 h,2.78 % ID Th-227/g organ
same,Th-227 in salivary glands,[4]; 336 h,1.29 % ID Th-227/g organ
Cc1cc(C(=O)NCCN(CCCN(CCNC(=O)c2cc(C)n(CC(=O)NCc3ccc(C(=O)N[C@@H](Cc4ccc5ccccc5n4)C(=O)NCCCC[C@H](NC(=O)N[C@@H](CCC(=O)O)C(=O)O)C(=O)O)nc3)c(=O)c2[O-])CCNC(=O)c2cc(C)n(CC(=O)NCc3ccc(C(=O)N[C@@H](Cc4ccc5ccccc5n4)C(=O)NCCCC[C@H](NC(=O)N[C@@H](CCC(=O)O)C(=O)O)C(=O)O)nc3)c(=O)c2[O-])CCNC(=O)c2cc(C)n(CC(=O)NCc3ccc(C(=O)N[C@@H](Cc4ccc5ccccc5n4)C(=O)NCCCC[C@H](NC(=O)N[C@@H](CCC(=O)O)C(=O)O)C(=O)O)nc3)c(=O)c2[O-])c([O-])c(=O)n1CC(=O)NCc1ccc(C(=O)N[C@@H](Cc2ccc3ccccc3n2)C(=O)NCCCC[C@H](NC(=O)N[C@@H](CCC(=O)O)C(=O)O)C(=O)O)nc1.[227Th+4] [34-C tetramer-227Th],Proliferation assay on cancer cell lines by TTCs Default Pivot #3 IC50 [kBq/mL] LnCap 1000cells 375kBq/nmol (mean),"[2]; LNCaP, 1000 cells/well, Th-227 labelled at 375 kBq/nmol, 5-day exposure, mean of 1 to 6 experiments",0.03 kBq/mL
same,Proliferation assay on cancer cell lines by TTCs Default Pivot #3 IC50 [kBq/mL] VCap 4000cells 375kBq/nmol (mean),[5],1.96 kBq/mL
same,Internalized in LNCaP fmol/10^6 cells 30 min,[3],117 fmol/10^6 cells
same,Membrane bound in LNCaP fmol/10^6 cells 30 min,[3],82 fmol/10^6 cells
same,Internalized in LNCaP fmol/10^6 cells 2 h,[3],315 fmol/10^6 cells
same,Membrane bound in LNCaP fmol/10^6 cells 2 h,[3],183 fmol/10^6 cells
same,Proliferation assay on cancer cell lines by TTCs Default Pivot #3 IC50 [kBq/mL] 22Rv1 1000cells 375kBq/nmol (mean),[6],1.34 kBq/mL
same,Proliferation assay on cancer cell lines by TTCs Default Pivot #3 IC50 [kBq/mL] C4-2 1000cells 375kBq/nmol (mean),[7],1.55 kBq/mL
